In US8129366B2, “VLA-4 inhibitory drug” (Daiichi Sankyo Company, Limited, priority 2005, dated 2012):

What was measured:
hα4 and β1 integrins = biological target: T1, hα4 and β1 integrins (Homo sapiens, UniProt P05556+P13612); assay: In vitro inhibition of binding between CHO cells expressing hα4 and β1 integrins and Eu3+-hVCAM-1 D1D7-IgG; details: for Ki: CHO cells expressing hα4 and β1 integrins, Eu3+-hVCAM-1 D1D7-IgG ligand, without HSA; for IC50: in the presence of 3% human serum albumin (HSA final concentration 3%)
T1 construct: expressed in transfected cells; host or cells: CHO cells
Summary of the method: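 Bound europium-labelled VCAM-1 D1D7-IgG on α4β1-expressing CHO cells was measured by time-resolved fluorescence after washing at 4 °C. Ligand (2 nM working dilution) and test compound, with or without 3% final HSA, were co-incubated for 1 h at room temperature in Mn²⁺-containing HEPES buffer, pH 7.5. IC50 came from % binding inhibition; Ki was calculated from ligand concentration and Scatchard Kd.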

[1] = tested on: eosinophile infiltration in mice actively sensitized with ascaris; assay: Test for eosinophile infiltration in mice actively sensitized with ascaris, once-a-day administration; assay type: in vivo
Method: (§1) Test for eosinophile infiltration in mice actively sensitized with ascaris (antigen to pig roundworm):
In the same manner as in Evaluation Example 2, the substances under test were orally administered once a day, in an amount of 5 mg/kg for compound A (representative compound of WO 02/053534) and the compound of Example 58, and in an amount of 0.8 mg/kg of the compound of Example 161, and an evaluation was performed in the same manner as in Evaluation Example 2.

[2] = Test for pharmacokinetics and oral absorbability in monkeys; assay type: in vivo; details: orally 0.5 mg/kg, single agent
Method: The pharmacokinetic parameters in the case of orally administering (0.5 mg/kg, single agent) the substance under test to monkeys, were as follows.

[3] = tested on: eosinophile infiltration in mice actively sensitized with ascaris; assay: Test for eosinophile infiltration in mice actively sensitized with ascaris, administered two times a day; assay type: in vivo; details: orally 5 mg/kg two times a day
Method: as §1
It has been reported that infiltration of eosinophilic cells is induced by active sensitization with ascaris {Int. Arch. Immuno., 108, 11-18 (1995)}. An evaluation of the compounds under test was performed according to the evaluation method described herein. The substance under test was orally administered in an amount of 5 mg/kg, two times a day. The total cell count and the eosinophile count in BALF of 48 hours after sensitization were calculated, and the effects were determined by comparing with the group not administered with the substance under test.

T1 sequence (P13612 34-1032): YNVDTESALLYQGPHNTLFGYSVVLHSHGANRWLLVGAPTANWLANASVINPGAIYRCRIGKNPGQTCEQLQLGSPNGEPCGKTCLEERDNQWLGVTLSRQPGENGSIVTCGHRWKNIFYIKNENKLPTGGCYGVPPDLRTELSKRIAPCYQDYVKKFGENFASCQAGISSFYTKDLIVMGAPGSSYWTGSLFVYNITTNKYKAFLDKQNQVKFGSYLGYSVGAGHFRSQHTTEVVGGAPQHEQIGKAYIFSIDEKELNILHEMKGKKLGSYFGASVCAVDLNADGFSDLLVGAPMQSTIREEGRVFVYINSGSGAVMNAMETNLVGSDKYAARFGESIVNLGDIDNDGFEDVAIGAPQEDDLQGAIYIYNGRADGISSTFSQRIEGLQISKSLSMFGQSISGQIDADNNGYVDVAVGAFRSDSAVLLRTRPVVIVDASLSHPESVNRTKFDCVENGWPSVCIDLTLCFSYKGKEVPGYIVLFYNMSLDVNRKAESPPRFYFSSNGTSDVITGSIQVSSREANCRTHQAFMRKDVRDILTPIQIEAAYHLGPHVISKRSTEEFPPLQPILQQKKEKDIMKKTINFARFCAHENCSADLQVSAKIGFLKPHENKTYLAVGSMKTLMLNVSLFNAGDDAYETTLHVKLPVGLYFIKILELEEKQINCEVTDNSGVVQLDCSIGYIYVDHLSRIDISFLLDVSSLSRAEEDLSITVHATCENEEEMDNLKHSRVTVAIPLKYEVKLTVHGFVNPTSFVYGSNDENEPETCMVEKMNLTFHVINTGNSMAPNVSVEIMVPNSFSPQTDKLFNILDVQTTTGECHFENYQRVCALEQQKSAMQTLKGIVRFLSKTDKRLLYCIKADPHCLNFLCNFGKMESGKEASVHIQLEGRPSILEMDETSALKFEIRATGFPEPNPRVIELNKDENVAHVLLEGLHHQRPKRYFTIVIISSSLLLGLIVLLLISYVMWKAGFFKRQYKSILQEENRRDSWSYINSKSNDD
T1 sequence (P05556 21-798): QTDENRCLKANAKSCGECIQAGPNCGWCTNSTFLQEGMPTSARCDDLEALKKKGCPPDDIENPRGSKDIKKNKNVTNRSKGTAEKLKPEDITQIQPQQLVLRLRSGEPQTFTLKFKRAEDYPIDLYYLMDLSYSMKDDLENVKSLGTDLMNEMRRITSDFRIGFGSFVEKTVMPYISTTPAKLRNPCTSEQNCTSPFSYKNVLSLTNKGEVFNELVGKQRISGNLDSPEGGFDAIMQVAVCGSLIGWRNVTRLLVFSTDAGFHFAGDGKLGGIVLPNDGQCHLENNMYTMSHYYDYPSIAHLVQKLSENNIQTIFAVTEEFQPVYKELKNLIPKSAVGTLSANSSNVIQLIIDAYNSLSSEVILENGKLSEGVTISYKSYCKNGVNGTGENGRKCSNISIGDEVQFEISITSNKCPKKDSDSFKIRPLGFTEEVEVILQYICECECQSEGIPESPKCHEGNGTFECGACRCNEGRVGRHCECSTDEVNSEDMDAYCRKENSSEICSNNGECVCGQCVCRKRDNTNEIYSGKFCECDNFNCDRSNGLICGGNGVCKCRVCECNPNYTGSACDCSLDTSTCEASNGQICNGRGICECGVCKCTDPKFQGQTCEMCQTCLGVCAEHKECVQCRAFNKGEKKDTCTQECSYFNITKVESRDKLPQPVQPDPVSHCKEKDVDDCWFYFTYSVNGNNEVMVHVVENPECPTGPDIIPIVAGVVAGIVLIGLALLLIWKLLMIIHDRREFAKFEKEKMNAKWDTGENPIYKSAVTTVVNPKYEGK

Compound | Ki (hα4 and β1 integrins) | IC50 (hα4 and β1 integrins) | Average total eosinophile count (×10^5) of (ascaris-sensitized + substance under test) group ([1]; orally 0.8 mg/kg once a day) | Cltot (mL/min/kg): apparent plasma clearance [2] | AUC (ng · h/ml): total area under the plasma concentration versus time curve ([2]; plasma, LC/MS/MS) | inhibition in vivo at 5 mg/kg ([3]; Mus musculus, po, eosinophile count in BALF 48 hours after sensitization vs ascaris-sensitized group, read-out: suppression rate (%)) | Average total eosinophile count (×10^5) of (ascaris-sensitized + substance under test) group ([3]; BALF 48 hours after sensitization) | Average total eosinophile count (×10^5) of (ascaris-sensitized + substance under test) group ([1]; orally 5 mg/kg once a day)
O=C(Nc1cc(F)c(CC(=O)N2C[C@@H](N3CCS(=O)(=O)CC3)C[C@H]2CO[C@H]2CC[C@H](C(=O)O)CC2)cc1Cl)c1coc2ccccc12 [Example 161, Trans-4-[1-[[4-[(benzo[b]furan-3-ylcarbonyl)amino]-5-chloro-2-fluorophenyl]acetyl]-(4S)-(1,1-dioxo-1λ^6-thiomorpholin-4-yl)-(2S)-pyrrolidinylmethoxy]cyclohexanecarboxylic acid] | 1.8 nM | 8.3 nM | 2.06 ×10^5 | – | – | – | – | –
CO[C@H]1CN([C@H]2C[C@@H](CO[C@H]3CC[C@H](C(=O)O)CC3)N(C(=O)Cc3cc(Cl)c(NC(=O)c4csc5ccccc45)cc3Cl)C2)C[C@H]1OC [Example 58, Trans-4-[1-[[4-[(benzo[b]thiophen-3-ylcarbonyl)amino]-2,5-dichlorophenyl]acetyl]-(4S)-(cis-3,4-dimethoxypyrrolidin-1-yl)-(2S)-pyrrolidinylmethoxy]cyclohexanecarboxylic acid] | 1.5 nM | 9.3 nM | – | 2.0 mL/min/kg | 7555 ng·h/mL | 63% | 1.63 ×10^5 | 1.73 ×10^5
